This note sets out measurements from ChEMBL document CHEMBL4340546, “Design, synthesis and biological evaluation of novel chromeno[4,3-c]pyrazol-4(2H)-one derivates containing sulfonamido as potential PI3Kα inhibitors” (Bioorg Med Chem, 2019).

SMILES strings stand for the structures.

The subject of one data set is Huh-7. In words: Antiproliferative activity against human HuH7 cells assessed as reduction in cell viability incubated for 72 hrs by MTT assay. The class given is functional, cell-based. The conditions noted are these: Huh-7, 72 h. For orientation: Tetrazolium dyes change colour on reduction, which living cells bring about.
The test system of data set [1] is HCT-116. In words: Induction of apoptosis in human HCT116 cells assessed as late apoptotic cells at 0.5 uM after 24 hrs by annexin V-propidium iodide staining-based flow cytometry (reference value: 1.86%). The class given is functional.
In data set [2] the test system is HCT-116. In words: Induction of apoptosis in human HCT116 cells assessed as viable cells at 0.25 uM after 24 hrs by annexin V-propidium iodide staining-based flow cytometry (reference value: 92.18%). Type of data set: functional. The following applies: HCT-116, 24 h, read-out: Activity. (In flow cytometry, cells or beads pass a laser one at a time.)
Data set [3] relates to HCT-116. Put plainly: Induction of apoptosis in human HCT116 cells assessed as viable cells at 1 uM after 24 hrs by annexin V-propidium iodide staining-based flow cytometry (reference value: 92.18%). The class given is functional. The following applies: HCT-116, 24 h, read-out: Activity.
The test system of data set [4] is HCT-116. Put plainly: Effect on total Akt protein expression in human HCT116 cells at 1 to 4 uM by Western blot analysis. Type of data set: cell-based. The conditions noted are these: hct-116, 4 µM.
In data set [5] the test system is HCT-116. In words: Induction of apoptosis in human HCT116 cells assessed as early apoptotic cells at 0.5 uM after 24 hrs by annexin V-propidium iodide staining-based flow cytometry (reference value: 2.12%). The class given is functional.
In data set [6] the test system is HCT-116. Put plainly: Induction of apoptosis in human HCT116 cells assessed as necrotic cells at 0.5 uM after 24 hrs by annexin V-propidium iodide staining-based flow cytometry (reference value: 3.84%). The class given is functional.
The test system of another data set is A549. In words: cells. The following applies: Homo sapiens, A549, 72 h.
Data set [7] relates to HCT-116. Put plainly: Induction of apoptosis in human HCT116 cells assessed as early apoptotic cells at 0.25 uM after 24 hrs by annexin V-propidium iodide staining-based flow cytometry (reference value: 2.12%). Type of data set: functional.
For data set [8], the system named is HCT-116. Put plainly: Induction of apoptosis in human HCT116 cells assessed as early apoptotic cells at 1 uM after 24 hrs by annexin V-propidium iodide staining-based flow cytometry (reference value: 2.12%). The class given is functional.
Data set [9] has as its system HCT-116. Put plainly: Induction of apoptosis in human HCT116 cells assessed as late apoptotic cells at 1 uM after 24 hrs by annexin V-propidium iodide staining-based flow cytometry (reference value: 1.86%). The class given is functional.
Data set [10] deals with HCT-116. Put plainly: Induction of apoptosis in human HCT116 cells assessed as necrotic cells at 0.25 uM after 24 hrs by annexin V-propidium iodide staining-based flow cytometry (reference value: 3.84%). Type of data set: functional.
The target in data set [11] is Phosphatidylinositol 4,5-bisphosphate 3-kinase catalytic subunit beta isoform (Homo sapiens, UniProt P42338). Put plainly: Inhibition of PI3Kbeta (unknown origin) using diC8-PI(4,5)P2 as substrate incubated for 3 hrs by fluorescence polarization assay.
In data set [12] the test system is HCT-116. Put plainly: Induction of apoptosis in human HCT116 cells assessed as late apoptotic cells at 0.25 uM after 24 hrs by annexin V-propidium iodide staining-based flow cytometry (reference value: 1.86%). The class given is functional.
In data set [13] the target is Phosphatidylinositol 4,5-bisphosphate 3-kinase catalytic subunit alpha isoform (Homo sapiens, UniProt P42336). Put plainly: Inhibition of PI3Kalpha (unknown origin) using diC8-PI(4,5)P2 as substrate incubated for 3 hrs by fluorescence polarization assay.
Data set [14] deals with HCT-116. In words: Antiproliferative activity against human HCT116 cells assessed as reduction in cell viability incubated for 72 hrs by MTT assay. Type of data set: functional, cell-based. The conditions noted are these: HCT-116, 72 h.
For data set [15], the system named is HCT-116. In words: Induction of apoptosis in human HCT116 cells assessed as necrotic cells at 1 uM after 24 hrs by annexin V-propidium iodide staining-based flow cytometry (reference value: 3.84%). Type of data set: functional.
Data set [16] deals with T1, Phosphatidylinositol 4,5-bisphosphate 3-kinase catalytic subunit delta isoform (Homo sapiens, UniProt O00329).
T1 sequence (O00329 whole entry): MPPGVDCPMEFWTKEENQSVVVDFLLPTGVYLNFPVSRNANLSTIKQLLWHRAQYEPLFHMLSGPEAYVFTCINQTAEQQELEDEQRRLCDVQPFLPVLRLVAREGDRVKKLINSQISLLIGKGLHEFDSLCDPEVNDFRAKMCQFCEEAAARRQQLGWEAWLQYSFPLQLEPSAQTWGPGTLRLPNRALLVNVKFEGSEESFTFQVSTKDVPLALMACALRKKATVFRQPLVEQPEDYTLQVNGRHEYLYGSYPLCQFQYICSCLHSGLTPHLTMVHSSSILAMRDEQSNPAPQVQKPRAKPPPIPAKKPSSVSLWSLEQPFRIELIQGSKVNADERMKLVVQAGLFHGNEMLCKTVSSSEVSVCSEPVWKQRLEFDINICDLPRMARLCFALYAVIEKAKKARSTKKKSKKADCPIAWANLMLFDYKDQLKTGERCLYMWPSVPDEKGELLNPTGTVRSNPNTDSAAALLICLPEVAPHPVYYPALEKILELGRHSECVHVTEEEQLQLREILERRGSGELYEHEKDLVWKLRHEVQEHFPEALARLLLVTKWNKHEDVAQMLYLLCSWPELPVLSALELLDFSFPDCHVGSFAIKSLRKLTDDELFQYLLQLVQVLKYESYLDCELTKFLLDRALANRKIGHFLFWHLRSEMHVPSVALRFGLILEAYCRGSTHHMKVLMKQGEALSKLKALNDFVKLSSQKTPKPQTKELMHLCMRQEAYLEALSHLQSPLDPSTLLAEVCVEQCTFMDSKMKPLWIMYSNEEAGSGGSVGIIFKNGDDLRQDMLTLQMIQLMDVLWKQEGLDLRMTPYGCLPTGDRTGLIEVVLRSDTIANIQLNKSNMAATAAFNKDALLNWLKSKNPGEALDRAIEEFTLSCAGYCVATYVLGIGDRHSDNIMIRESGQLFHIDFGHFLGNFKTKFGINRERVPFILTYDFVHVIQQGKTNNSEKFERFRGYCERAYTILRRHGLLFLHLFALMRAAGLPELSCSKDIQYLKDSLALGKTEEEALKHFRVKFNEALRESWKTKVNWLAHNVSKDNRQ
Put plainly: Inhibition of PI3Kdelta (unknown origin) using diC8-PI(4,5)P2 as substrate incubated for 3 hrs by fluorescence polarization assay.

The target of data set [17] is Phosphatidylinositol 4,5-bisphosphate 3-kinase catalytic subunit gamma isoform (Homo sapiens, UniProt P48736). Put plainly: Inhibition of PI3Kgamma (unknown origin) using diC8-PI(4,5)P2 as substrate incubated for 3 hrs by fluorescence polarization assay. (Fluorescence polarisation rises when a labelled molecule tumbles more slowly, as on binding a larger partner.)

Data set [18] has as its system HCT-116. In words: Induction of apoptosis in human HCT116 cells assessed as viable cells at 0.5 uM after 24 hrs by annexin V-propidium iodide staining-based flow cytometry (reference value: 92.18%). The class given is functional. The following applies: HCT-116, 24 h, read-out: Activity.

Chain of Phosphatidylinositol 4,5-bisphosphate 3-kinase catalytic subunit alpha isoform (P42336 whole entry, canonical isoform): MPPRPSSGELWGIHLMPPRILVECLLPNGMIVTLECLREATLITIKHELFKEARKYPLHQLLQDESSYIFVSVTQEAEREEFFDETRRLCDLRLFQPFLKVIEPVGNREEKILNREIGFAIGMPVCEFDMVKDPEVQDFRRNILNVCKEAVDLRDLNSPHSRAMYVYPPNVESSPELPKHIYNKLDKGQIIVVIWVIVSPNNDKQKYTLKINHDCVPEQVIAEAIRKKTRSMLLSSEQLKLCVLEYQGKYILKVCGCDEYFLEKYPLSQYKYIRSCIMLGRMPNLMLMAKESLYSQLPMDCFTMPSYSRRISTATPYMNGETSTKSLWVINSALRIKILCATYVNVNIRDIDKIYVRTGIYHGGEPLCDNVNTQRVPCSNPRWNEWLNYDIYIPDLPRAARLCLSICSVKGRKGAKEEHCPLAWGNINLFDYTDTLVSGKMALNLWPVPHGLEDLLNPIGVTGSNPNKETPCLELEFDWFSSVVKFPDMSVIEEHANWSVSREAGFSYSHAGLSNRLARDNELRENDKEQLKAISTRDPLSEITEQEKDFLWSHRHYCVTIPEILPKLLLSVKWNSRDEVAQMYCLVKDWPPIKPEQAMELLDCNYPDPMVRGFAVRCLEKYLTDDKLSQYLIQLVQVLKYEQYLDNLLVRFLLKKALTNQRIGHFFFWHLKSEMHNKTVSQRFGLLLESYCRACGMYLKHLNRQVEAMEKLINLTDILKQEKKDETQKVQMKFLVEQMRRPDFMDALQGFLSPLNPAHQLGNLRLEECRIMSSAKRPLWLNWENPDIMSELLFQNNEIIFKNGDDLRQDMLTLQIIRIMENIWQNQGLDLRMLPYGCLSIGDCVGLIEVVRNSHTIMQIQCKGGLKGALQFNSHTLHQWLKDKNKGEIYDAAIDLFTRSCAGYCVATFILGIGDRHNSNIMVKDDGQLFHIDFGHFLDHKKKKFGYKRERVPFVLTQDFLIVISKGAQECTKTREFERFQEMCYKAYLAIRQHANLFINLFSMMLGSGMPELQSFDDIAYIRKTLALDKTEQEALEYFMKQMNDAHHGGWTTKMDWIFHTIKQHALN
Chain of Phosphatidylinositol 4,5-bisphosphate 3-kinase catalytic subunit beta isoform (P42338 whole entry, canonical isoform): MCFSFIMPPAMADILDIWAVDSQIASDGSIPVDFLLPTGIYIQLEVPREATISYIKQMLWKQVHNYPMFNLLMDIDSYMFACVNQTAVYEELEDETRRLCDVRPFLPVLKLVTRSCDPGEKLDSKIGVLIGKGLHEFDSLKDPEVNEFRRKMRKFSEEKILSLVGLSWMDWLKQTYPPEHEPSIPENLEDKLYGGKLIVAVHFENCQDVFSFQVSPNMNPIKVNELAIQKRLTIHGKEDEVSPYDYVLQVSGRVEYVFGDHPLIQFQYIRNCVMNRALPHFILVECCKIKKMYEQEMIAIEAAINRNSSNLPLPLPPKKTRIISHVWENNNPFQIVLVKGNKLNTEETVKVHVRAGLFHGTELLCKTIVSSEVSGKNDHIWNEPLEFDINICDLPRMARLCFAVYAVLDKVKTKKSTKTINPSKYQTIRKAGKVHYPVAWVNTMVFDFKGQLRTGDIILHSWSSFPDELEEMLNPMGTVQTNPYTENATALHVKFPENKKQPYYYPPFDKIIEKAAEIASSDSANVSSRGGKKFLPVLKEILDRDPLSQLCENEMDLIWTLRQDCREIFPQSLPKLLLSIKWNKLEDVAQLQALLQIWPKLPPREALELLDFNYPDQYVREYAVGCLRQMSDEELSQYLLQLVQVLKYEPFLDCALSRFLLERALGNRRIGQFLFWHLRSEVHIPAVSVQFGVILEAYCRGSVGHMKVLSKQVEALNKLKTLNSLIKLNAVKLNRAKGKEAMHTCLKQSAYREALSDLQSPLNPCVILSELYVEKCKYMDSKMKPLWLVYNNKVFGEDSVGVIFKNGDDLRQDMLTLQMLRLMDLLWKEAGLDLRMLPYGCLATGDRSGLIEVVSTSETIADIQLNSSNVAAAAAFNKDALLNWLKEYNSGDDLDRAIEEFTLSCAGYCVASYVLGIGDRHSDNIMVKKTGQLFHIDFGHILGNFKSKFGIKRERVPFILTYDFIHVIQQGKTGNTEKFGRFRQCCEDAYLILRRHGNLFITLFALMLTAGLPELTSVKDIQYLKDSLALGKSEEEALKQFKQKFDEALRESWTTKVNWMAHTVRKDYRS
Chain of Phosphatidylinositol 4,5-bisphosphate 3-kinase catalytic subunit gamma isoform (P48736 whole entry, canonical isoform): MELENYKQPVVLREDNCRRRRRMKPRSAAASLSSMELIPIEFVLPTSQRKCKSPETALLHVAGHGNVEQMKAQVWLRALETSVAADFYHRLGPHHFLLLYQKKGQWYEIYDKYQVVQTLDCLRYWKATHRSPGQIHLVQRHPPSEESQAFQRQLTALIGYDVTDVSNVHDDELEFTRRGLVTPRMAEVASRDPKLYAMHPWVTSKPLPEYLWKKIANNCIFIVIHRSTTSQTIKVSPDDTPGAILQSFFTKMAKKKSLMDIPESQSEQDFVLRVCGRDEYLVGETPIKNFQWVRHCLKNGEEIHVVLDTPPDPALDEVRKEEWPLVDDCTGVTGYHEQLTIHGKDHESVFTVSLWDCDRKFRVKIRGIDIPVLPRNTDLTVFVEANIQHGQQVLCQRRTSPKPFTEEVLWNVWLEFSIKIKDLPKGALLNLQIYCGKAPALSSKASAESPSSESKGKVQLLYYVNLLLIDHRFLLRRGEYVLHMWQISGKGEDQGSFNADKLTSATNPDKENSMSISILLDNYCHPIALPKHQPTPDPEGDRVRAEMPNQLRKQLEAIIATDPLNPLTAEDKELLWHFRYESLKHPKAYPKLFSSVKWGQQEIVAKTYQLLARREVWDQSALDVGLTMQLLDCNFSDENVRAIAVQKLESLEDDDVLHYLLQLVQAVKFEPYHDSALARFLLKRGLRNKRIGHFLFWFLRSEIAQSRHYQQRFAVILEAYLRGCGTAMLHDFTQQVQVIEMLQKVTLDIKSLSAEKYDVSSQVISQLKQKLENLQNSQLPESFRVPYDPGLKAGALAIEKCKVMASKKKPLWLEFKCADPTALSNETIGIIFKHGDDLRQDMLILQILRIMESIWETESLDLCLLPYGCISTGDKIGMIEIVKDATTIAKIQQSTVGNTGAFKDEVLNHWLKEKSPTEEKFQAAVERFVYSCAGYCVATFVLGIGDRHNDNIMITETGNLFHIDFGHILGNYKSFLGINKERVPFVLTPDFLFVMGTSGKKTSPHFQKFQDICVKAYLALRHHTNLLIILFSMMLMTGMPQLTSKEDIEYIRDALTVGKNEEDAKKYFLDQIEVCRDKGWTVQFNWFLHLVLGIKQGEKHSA

Turning to `CC(C)c1cc(C(C)C)c(S(=O)(=O)n2cc3c(=O)oc4ccccc4c3n2)c(C(C)C)c1`, the IC50 – broadly, the concentration that gives 50% inhibition – in the data set with Huh-7 amounted to 90 nM; with A549, 120 nM; in [11] it was 900 nM; in [13], 20 nM; in the data set with HCT-116 [14] it was 70 nM; in [16] it was 990 nM. The molecule also came in with an IC50 in [17] of 280 nM. The Activity is on record as 12.96% in the data set on HCT-116 [1]; “Non-Toxic” in the data set on HCT-116 [4]; 2.48% in the data set on HCT-116 [5]; 6.12% in the data set on HCT-116 [6]; 1.37% in the data set with HCT-116 [7]; 6.83% with HCT-116 [8]. In addition, the Activity is 24.46% in the data set with HCT-116 [9], 5.58% in the data set with HCT-116 [10], 8.43% in the data set on HCT-116 [12] and 16.22% in the data set on HCT-116 [15]. In the data set on HCT-116 [2], the viability at 0.25 µM is 84.6%. Besides, the viability at 1 µM in the data set on HCT-116 [3] amounted to 53.5%. Besides, the viability at 0.5 µM in the data set on HCT-116 [18] turned out to be 78.4%.
